Measurements published in US20260137687A1, “GTPase INHIBITORS AND USES THEREOF” (The Regents of The University of California, priority 2022, published 2026).

Key:
K-Ras(G12R) = K-Ras(G12R) (Homo sapiens, UniProt P01116, G12R); assay: Lysate target engagement assay (anti-Ras immunoblot); assay type: binding; parameters: pMSCV-Puro plasmids containing full length human KRAS genes (G12R); expressed in transfected cells; host or cells: Ba/F3 (mouse) transduced with pMSCV-Puro KRAS(G12R); lysate
Procedure: For co-treatment with recombinant K-Ras(G12R), Ba/F3(G12R) cells were lysed with NP-40 buffer and adjusted to 1.5 mg/mL. A 0.1 μM solution of recombinant K-Ras(G12R) was prepared in NP-40 buffer. 18 μL of Ba/F3 lysate were added to 4 μL of a 0.5 mM solution of 3 containing 10% DMSO in NP-40 buffer or DMSO as control. 18 μL of recombinant K-Ras(G12R) solution or NP-40 was added and the mixtures were incubated for 16 h at 23° C. Subsequently samples were mixed with 5×SDS Loading Dye and heated at 95° C. for 5 min.
Unless otherwise noted, SDS-PAGE was run with Novex 12% Bis-Tris gel (Invitrogen) in MES running buffer (Invitrogen) at 200 V for 60 min following the manufacturer's instructions. Protein bands were transferred onto 0.2-μm nitrocellulose membranes (Bio-Rad) using a wet-tank transfer apparatus (Bio-Rad Criterion Blotter) in 1×TOWBIN buffer with 10% methanol at 75V for 45 min. Membranes were blocked in 5% BSA-TBST for 1 h at 23° C. Primary antibody binding was performed with the indicated antibodies diluted in 5% BSA-TBST at 4° C. for at least 16 h. After washing the membrane three times with TBST (5 min each wash), secondary antibodies (goat anti-rabbit IgG-IRDye 800 and goat anti-mouse IgG-IRDye 680, Li-COR) were added as solutions in 5% skim milk-TBST at the dilutions recommended by the manufacturer. Secondary antibody binding was allowed to proceed for 1 h at 23° C. The membrane was washed three times with TBST (5 min each wash) and imaged on a Li-COR Odyssey fluorescence imager.

[1] = Stability in aqueous buffers; assay type: physicochemical; conditions: over a range of pH
K-Ras(G12R)·GDP = molecular target: T1, K-Ras(G12R)·GDP (Homo sapiens, UniProt P01116, G12R); assay: Intact protein mass spectrometry, covalent modification; assay type: binding; conditions: for reaction rate with K-Ras(G12R)·GDP: 50 μM
T1 construct: human K-Ras (G12R, aa 1-169); 6xHis tag + TEV cleavage site (N, cleaved yes); made in house; host or cells: E. coli BL21(DE3)
Procedure: (§1) Purified K-Ras variants (4 μM final) were incubated with compounds at 50 or 100 μM (1% v/v DMSO final) in 20 mM HEPES pH 7.5, 150 mM NaCl, 1 mM MgCl2 in a total volume of 150 μL. After the noted time, the samples were analyzed by intact protein LC/MS using a Waters Xevo G2-XS system equipped with an Acquity UPLC BEH C4 1.7 μm column. The mobile phase was a linear gradient of 5-95% acetonitrile/water+0.05% formic acid. The spectra were processed using QuantLynx, giving the ion counts observed for the most abundant species. For assays conducted under an alternate pH, the HEPES buffer was replaced with one of the following buffers (maintaining 150 mM NaCl and 1 mM MgCl2): 20 mM MES pH 6 or 20 mM Tris pH 9.

wildtype (WT) K-Ras·GDP = molecular target: T2, wildtype (WT) K-Ras·GDP (Homo sapiens, UniProt P01116); assay: as above; assay type: binding; conditions: extended incubation at pH 7.5; 50 μM
T2 construct: human K-Ras (wildtype, aa 1-169); 6xHis tag + TEV cleavage site (N, cleaved yes); made in house; host or cells: E. coli BL21(DE3)
Procedure: as §1

K-Ras Q61K = K-Ras Q61K (Homo sapiens, UniProt P01116, Q61K); assay: as above; assay type: binding; conditions: extended incubation at pH 7.5; 50 μM, 16 h
Procedure: as §1

In the case of `CC(=O)C(O)(O)C(=O)N1[C@@H]2CC[C@H]1CN(c1nc(OCC34CCCN3CCC4)nc3c(F)c(-c4cccc5cccc(Cl)c45)ncc13)C2` [compound 3, 1-((1R,5S)-3-(7-(8-chloronaphthalen-1-yl)-8-fluoro-2-((tetrahydro-1H-pyrrolizin-7a(5H)-yl)methoxy)pyrido[4,3-d]pyrimidin-4-yl)-3,8-diazabicyclo[3.2.1]octan-8-yl)-2,2-dihydroxybutane-1,3-dione], the “modification of exogenous recombinant K-Ras(G12R)·GDP added to lysate” value (K-Ras(G12R); after 16 h of incubation) is reported as “complete modification”, the “modification of endogenous K-Ras(G12R) in BaF3/K-Ras(G12R) lysates” value (K-Ras(G12R); lysate not pre-loaded with GDP) is reported as “did not detect any modification” and the “modification of endogenous K-Ras(G12R) in BaF3/K-Ras(G12R) lysates” value (K-Ras(G12R); lysates pre-loaded with excess GDP) is reported as “covalent modification”. The “stability in aqueous buffers” value [1] was “stable”, the “modification of surface exposed arginines of K-Ras” value (K-Ras(G12R)·GDP) was “not modified” and the “covalent adduct formation with recombinant K-Ras(G12R)·GDP” value (K-Ras(G12R)·GDP; 100 μM compound, pH 7.5, 23° C., adducts +656 Da and +638 Da) was “stoichiometric covalent adduct”. For the same molecule, the “reaction rate with K-Ras(G12R)·GDP” value (K-Ras(G12R)·GDP; pH 6) was “greatly reduced rate”, the “reaction rate with K-Ras(G12R)·GDP” value (K-Ras(G12R)·GDP; pH 8) was “reached maximum” and the “reaction rate with K-Ras(G12R)·GDP” value (K-Ras(G12R)·GDP; pH 9) was “did not further increase”. For the same molecule, the “reversibility of adduct formation” value (K-Ras(G12R)·GDP; purified adduct incubated at pH 7.5 for 7 days at 23° C.) was “irreversible”, the “covalent modification of wildtype K-Ras·GDP” value (wildtype (WT) K-Ras·GDP) was “did not modify” and the “covalent modification of K-Ras Q61K” value (K-Ras Q61K) was “did not modify”.
